Molecules are shown by their SMILES.

A word on the DC50: it is the concentration giving 50% degradation. Lower therefore signals a more potent degrader. One may read the Dmax as the greatest extent of degradation seen. By IC50 is commonly meant the concentration that gives 50% inhibition.

What all share (assay type): cell-based
The target in assay [1] is Cyclin E1 (Homo sapiens, UniProt P24864+Q96SW2). Put plainly: Cyclin E1 Cellular Degradation Assay (MSD). Details: endogenous in cells; host or cells: OVCAR3. The following applies: for DC50 / Dmax: Cyclin E1 cellular degradation; for Dmax: maximum degradation; for Ratio of GSPT1 DC50/Cyclin E1 DC50: selectivity for degradation of Cyclin E1 over GSPT1. The method, boiled down:
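Cyclin E1 remaining after 24 h compound exposure of OVCAR3 cells was quantified in lysates by electrochemiluminescent MSD sandwich assay. DC50 (50% response concentration) and Dmax (maximum response) were calculated, with 110% response set by a reference compound at […].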

Assay [2] deals with Phospho-Rb (Ser807/811). Put plainly: Phospho-Retinoblastoma (pRB) Cellular Assay. The following applies: Homo sapiens, OVCAR-3, NIH OVCAR3 cells, 24 hours; for IC50: concentration giving 50% response; for Emax: maximum response, reference compound at 10 μM = 100%, read-out: pRB Ymax. The method, boiled down: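 Phospho-Rb (Ser807/811) kit read-out on EnVision after lysis (≥4 h, room temperature, dark) of OVCAR3 cells exposed to compound dilutions for 24 h. IC50 and maximum response Ymax are relative to a 10 μM reference compound defining 100%.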

The target in assay [3] is GSPT1 (Homo sapiens, UniProt P15170+Q96SW2). Briefly: GSPT1 Cellular Degradation Assay (DF15-GSPT1-ePL). The following applies: DF15-GSPT1-ePL cells, 20 hours. Details: expressed in transfected cells. The method, boiled down:
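DC50 and Dmax were derived from chemiluminescence, with 75% response set by the reference compound at […]. Readout was ePL enzyme-fragment complementation in a DF15 line expressing chimeric GSPT1. Cells were exposed to compound for 20 h at 37 °C in RPMI 1640 with 10% FBS, cooled 30 min, then lysed with substrate for 60 min.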

Chain of Cyclin E1 (P24864 whole entry): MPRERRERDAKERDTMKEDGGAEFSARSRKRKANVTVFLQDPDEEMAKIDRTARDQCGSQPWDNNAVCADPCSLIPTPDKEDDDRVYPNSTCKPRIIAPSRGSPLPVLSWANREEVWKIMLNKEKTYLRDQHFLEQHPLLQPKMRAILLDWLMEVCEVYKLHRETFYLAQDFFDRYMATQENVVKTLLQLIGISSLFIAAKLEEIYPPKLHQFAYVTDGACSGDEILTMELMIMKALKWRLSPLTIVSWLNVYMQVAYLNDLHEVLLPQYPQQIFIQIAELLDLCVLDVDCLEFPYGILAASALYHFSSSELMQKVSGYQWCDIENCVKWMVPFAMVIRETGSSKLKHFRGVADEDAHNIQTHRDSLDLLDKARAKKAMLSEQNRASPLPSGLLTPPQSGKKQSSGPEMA
Chain of Cyclin E1 (Q96SW2 whole entry): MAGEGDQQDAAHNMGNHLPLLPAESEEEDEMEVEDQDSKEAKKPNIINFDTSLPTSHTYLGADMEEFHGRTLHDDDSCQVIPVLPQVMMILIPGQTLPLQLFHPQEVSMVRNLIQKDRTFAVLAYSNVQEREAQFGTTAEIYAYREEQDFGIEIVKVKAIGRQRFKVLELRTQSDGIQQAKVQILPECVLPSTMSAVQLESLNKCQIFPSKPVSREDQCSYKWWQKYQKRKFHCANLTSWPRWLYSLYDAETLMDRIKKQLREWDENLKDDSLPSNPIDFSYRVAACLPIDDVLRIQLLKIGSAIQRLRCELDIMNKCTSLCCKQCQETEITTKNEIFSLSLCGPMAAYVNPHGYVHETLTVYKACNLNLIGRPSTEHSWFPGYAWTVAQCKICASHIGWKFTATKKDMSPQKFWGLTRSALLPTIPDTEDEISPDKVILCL
Chain of Cyclin E1 (Q16531 whole entry partner): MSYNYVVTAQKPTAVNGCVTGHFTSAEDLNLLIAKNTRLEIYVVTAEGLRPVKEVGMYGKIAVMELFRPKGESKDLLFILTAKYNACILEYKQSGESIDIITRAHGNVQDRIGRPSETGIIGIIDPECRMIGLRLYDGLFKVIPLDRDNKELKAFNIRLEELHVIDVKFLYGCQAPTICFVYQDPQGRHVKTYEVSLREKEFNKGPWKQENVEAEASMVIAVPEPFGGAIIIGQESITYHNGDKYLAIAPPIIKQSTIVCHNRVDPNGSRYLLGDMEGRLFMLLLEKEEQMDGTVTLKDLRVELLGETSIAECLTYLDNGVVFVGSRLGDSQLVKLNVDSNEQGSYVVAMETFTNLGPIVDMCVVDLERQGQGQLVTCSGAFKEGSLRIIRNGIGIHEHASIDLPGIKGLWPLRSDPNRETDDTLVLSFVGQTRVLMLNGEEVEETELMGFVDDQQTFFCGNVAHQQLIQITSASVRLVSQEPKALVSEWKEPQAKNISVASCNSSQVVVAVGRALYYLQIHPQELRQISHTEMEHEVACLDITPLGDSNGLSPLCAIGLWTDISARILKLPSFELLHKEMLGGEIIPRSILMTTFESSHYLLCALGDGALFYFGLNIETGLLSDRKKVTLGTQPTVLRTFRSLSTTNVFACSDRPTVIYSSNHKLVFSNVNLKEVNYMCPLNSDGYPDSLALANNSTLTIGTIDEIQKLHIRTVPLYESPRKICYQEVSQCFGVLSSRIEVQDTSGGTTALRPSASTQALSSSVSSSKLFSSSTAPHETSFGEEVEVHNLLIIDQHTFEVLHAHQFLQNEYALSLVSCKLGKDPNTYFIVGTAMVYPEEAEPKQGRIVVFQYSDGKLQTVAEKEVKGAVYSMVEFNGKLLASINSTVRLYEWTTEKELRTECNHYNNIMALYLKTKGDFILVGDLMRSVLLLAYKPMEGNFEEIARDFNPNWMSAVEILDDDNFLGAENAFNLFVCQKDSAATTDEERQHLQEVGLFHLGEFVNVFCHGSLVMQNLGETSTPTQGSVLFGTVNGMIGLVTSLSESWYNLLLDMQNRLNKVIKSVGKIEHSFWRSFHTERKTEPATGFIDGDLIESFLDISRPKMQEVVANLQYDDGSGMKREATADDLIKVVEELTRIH
Chain of GSPT1 (P15170 whole entry, the tested form may be a part): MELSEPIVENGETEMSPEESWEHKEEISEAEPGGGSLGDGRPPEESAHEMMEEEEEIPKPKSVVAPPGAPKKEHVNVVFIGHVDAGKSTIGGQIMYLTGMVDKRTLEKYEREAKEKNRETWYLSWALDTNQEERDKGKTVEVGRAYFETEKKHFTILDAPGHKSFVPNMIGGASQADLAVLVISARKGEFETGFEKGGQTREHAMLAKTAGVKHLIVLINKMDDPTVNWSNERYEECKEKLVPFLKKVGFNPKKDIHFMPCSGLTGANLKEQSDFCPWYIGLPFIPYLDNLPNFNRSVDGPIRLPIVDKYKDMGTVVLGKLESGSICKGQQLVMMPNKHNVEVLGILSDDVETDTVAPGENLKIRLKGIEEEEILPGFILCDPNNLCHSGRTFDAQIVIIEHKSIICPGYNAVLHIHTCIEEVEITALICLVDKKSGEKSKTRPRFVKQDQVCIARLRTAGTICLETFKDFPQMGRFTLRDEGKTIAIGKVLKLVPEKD
Chain of GSPT1 (Q96SW2 whole entry, the tested form may be a part): as the sequence (Q96SW2 whole entry) above
Chain of GSPT1 (Q16531 whole entry partner, the tested form may be a part): as the sequence (Q16531 whole entry partner) above

Regarding `COc1cc(Oc2ccc(F)cc2F)ccc1NC(=O)OCc1ccc2c(c1OC)C(=O)N(C1CCC(=O)NC1=O)C2` (stereo not drawn) [Example 49, [2-(2,6-dioxopiperidin-3-yl)-4-methoxy-3-oxo-2,3-dihydro-1H-isoindol-5-yl]methyl N-[4-(2,4-difluorophenoxy)-2-methoxyphenyl]carbamate], in assay [1], half-maximal degradation (DC50) was put at 77 nM, the Dmax is 106% and the “Ratio of GSPT1 DC50/Cyclin E1 DC50” value is on record as above 181. Also, in assay [2], the IC50 was 171 nM and the Emax amounted to 116%. In assay [3], the DC50 was above 14000 nM and the Dmax worked out at 24%.
In the case of `COc1c(COC(=O)Nc2ccc(Oc3cccc(F)c3F)cc2)ccc2c1C(=O)N(C1CCC(=O)NC1=O)C2` (stereo not drawn) [Example 110, [2-(2,6-dioxopiperidin-3-yl)-4-methoxy-3-oxo-2,3-dihydro-1H-isoindol-5-yl]methyl N-[4-(2,3-difluorophenoxy)phenyl]carbamate], in assay [1], the DC50 is 173 nM, the Dmax is 106% and the “Ratio of GSPT1 DC50/Cyclin E1 DC50” value is given as above 81. Besides, in assay [2], the IC50 came to 72 nM and the Emax was found to be 99%. In assay [3], the DC50 was above 14000 nM and the Dmax came out at 20%.
For `COc1c(COC(=O)Nc2ccc(Oc3ccccc3C(F)F)cc2F)ccc2c1C(=O)N(C1CCC(=O)NC1=O)C2` (stereo not drawn) [Example 86, [2-(2,6-dioxopiperidin-3-yl)-4-methoxy-3-oxo-2,3-dihydro-1H-isoindol-5-yl]methyl N-{4-[2-(difluoromethyl)phenoxy]-2-fluorophenyl}carbamate], in assay [1], the DC50 amounted to 205 nM, the Dmax came to 107% and the “Ratio of GSPT1 DC50/Cyclin E1 DC50” value is above 68. In addition, in assay [2], the IC50 came to 176 nM and the Emax was 112%. Moreover, in assay [3], the DC50 is above 14000 nM and the Dmax came out at 33%.
On to `O=C1CCC(N2Cc3ccc(COC(=O)Nc4ccc(Oc5cc(F)cc(F)c5)cc4F)c(O[C@@H]4CCCOC4)c3C2=O)C(=O)N1` (stereo partly drawn) [Example 149, [2-(2,6-dioxopiperidin-3-yl)-4-[(3R)-oxan-3-yloxy]-3-oxo-2,3-dihydro-1H-isoindol-5-yl]methyl N-[4-(3,5-difluorophenoxy)-2-fluorophenyl]carbamate], for which, in assay [1], the DC50 worked out at 67 nM, the Dmax came to 109% and the “Ratio of GSPT1 DC50/Cyclin E1 DC50” value is listed as above 209. In addition, in assay [2], the IC50 came out at 71 nM and the Emax came out at 144%. Also, in assay [3], the half-maximal degradation concentration (DC50) was above 14000 nM and the Dmax stood at 15%.
With `COc1c(COC(=O)Nc2ccc(Oc3cccc(Br)c3)cc2)ccc2c1C(=O)N(C1CCC(=O)NC1=O)C2` (stereo not drawn) [Example 10, [2-(2,6-dioxopiperidin-3-yl)-4-methoxy-3-oxo-2,3-dihydro-1H-isoindol-5-yl]methyl N-[4-(3-bromophenoxy)phenyl]carbamate], in assay [1], half-maximal degradation (DC50) was put at 114 nM, the Dmax came to 106% and the “Ratio of GSPT1 DC50/Cyclin E1 DC50” value is above 123. Also, in assay [2], the IC50 worked out at 352 nM and the Emax came out at 105%. Moreover, in assay [3], the DC50 was above 14000 nM and the Dmax stood at 54%.
Take `COc1c(COC(=O)Nc2ccc(Oc3cc(F)ccc3Cl)cc2)ccc2c1C(=O)N(C1CCC(=O)NC1=O)C2` (stereo not drawn) [Example 106, [2-(2,6-dioxopiperidin-3-yl)-4-methoxy-3-oxo-2,3-dihydro-1H-isoindol-5-yl]methyl N-[4-(2-chloro-5-fluorophenoxy)phenyl]carbamate]: in assay [1], the DC50 worked out at 57 nM, the Dmax is 106% and the “Ratio of GSPT1 DC50/Cyclin E1 DC50” value is listed as above 245. In assay [2], the IC50 was 178 nM and the Emax was found to be 113%. For the same compound, in assay [3], the half-maximal degradation concentration (DC50) was above 14000 nM and the Dmax is 47%.
In the case of `O=C1CCC(N2Cc3ccc(COC(=O)Nc4ccc(Oc5ccc(F)cc5Cl)cc4)c(OC4CCC4)c3C2=O)C(=O)N1` (stereo not drawn) [Example 128, [4-cyclobutoxy-2-(2,6-dioxopiperidin-3-yl)-3-oxo-2,3-dihydro-1H-isoindol-5-yl]methyl N-[4-(2-chloro-4-fluorophenoxy)phenyl]carbamate], in assay [1], half-maximal degradation (DC50) was put at 101 nM, the Dmax was found to be 106% and the “Ratio of GSPT1 DC50/Cyclin E1 DC50” value was above 139. In assay [2], the IC50 is 136 nM and the Emax worked out at 124%. Also, in assay [3], the DC50 was above 14000 nM and the Dmax was found to be 10%.
For the compound `COc1c(COC(=O)Nc2ccc(Oc3cccc(F)c3Cl)cc2)ccc2c1C(=O)N(C1CCC(=O)NC1=O)C2` (stereo not drawn) [Example 111, [2-(2,6-dioxopiperidin-3-yl)-4-methoxy-3-oxo-2,3-dihydro-1H-isoindol-5-yl]methyl N-[4-(2-chloro-3-fluorophenoxy)phenyl]carbamate], in assay [1], half-maximal degradation (DC50) was put at 95 nM, the Dmax was determined as 106% and the “Ratio of GSPT1 DC50/Cyclin E1 DC50” value was above 147. In addition, in assay [2], the IC50 was found to be 74 nM and the Emax turned out to be 99%. For the same compound, in assay [3], the DC50 was above 14000 nM and the Dmax came out at 15%.
`O=C1CCC(N2Cc3ccc(COC(=O)Nc4ccc(Oc5ccc(F)c(F)c5)cc4F)c(OC4CCOCC4)c3C2=O)C(=O)N1` (stereo not drawn) [Example 132, [2-(2,6-dioxopiperidin-3-yl)-4-(oxan-4-yloxy)-3-oxo-2,3-dihydro-1H-isoindol-5-yl]methyl N-[4-(3,4-difluorophenoxy)-2-fluorophenyl]carbamate]: in assay [1], the DC50 was determined as 20 nM, the Dmax is 107% and the “Ratio of GSPT1 DC50/Cyclin E1 DC50” value was above 693. Besides, in assay [2], the IC50 is 66 nM and the Emax stood at 142%. Moreover, in assay [3], the DC50 is above 14000 nM and the Dmax stood at 10%.
In the case of `CCOc1c(COC(=O)Nc2ccc(Oc3ccccc3)cc2)ccc2c1C(=O)N(C1CCC(=O)NC1=O)C2` (stereo not drawn) [Example 52, [2-(2,6-dioxopiperidin-3-yl)-4-ethoxy-3-oxo-2,3-dihydro-1H-isoindol-5-yl]methyl N-(4-phenoxyphenyl)carbamate], in assay [1], the DC50 is 134 nM, the Dmax stood at 107% and the “Ratio of GSPT1 DC50/Cyclin E1 DC50” value is above 105. In assay [2], half-maximal inhibition (IC50) required 81 nM and the Emax stood at 111%. In assay [3], the DC50 was above 14000 nM and the Dmax came out at 13%.
As to `CCN(C)C(=O)COc1c(COC(=O)Nc2ccc(Oc3ccc(F)c(F)c3)cc2)ccc2c1C(=O)N(C1CCC(=O)NC1=O)C2` (stereo not drawn) [Example 177, [2-(2,6-dioxopiperidin-3-yl)-4-{[ethyl(methyl)carbamoyl]methoxy}-3-oxo-2,3-dihydro-1H-isoindol-5-yl]methyl N-[4-(3,4-difluorophenoxy)phenyl]carbamate], in assay [1], it took 299 nM to reach half-maximal degradation (DC50), the Dmax amounted to 108% and the “Ratio of GSPT1 DC50/Cyclin E1 DC50” value is listed as above 47. In assay [2], half-maximal inhibition (IC50) required 161 nM and the Emax was 126%. Also, in assay [3], the 50% degradation concentration (DC50) was above 14000 nM and the Dmax was 0%.
Turning to `NC(=O)COc1c(COC(=O)Nc2ccc(Oc3ccc(F)c(F)c3)cc2)ccc2c1C(=O)N(C1CCC(=O)NC1=O)C2` (stereo not drawn) [Example 176, [4-(carbamoylmethoxy)-2-(2,6-dioxopiperidin-3-yl)-3-oxo-2,3-dihydro-1H-isoindol-5-yl]methyl N-[4-(3,4-difluorophenoxy)phenyl]carbamate], in assay [1], the DC50 is 179 nM, the Dmax stood at 101% and the “Ratio of GSPT1 DC50/Cyclin E1 DC50” value is on record as above 78. In assay [2], 44 nM corresponded to half-maximal inhibition (IC50) and the Emax turned out to be 112%. Also, in assay [3], the half-maximal degradation concentration (DC50) was above 14000 nM and the Dmax is 20%.
In the case of `COc1c(COC(=O)Nc2ccc(Oc3cccc(F)c3)cc2F)ccc2c1C(=O)N(C1CCC(=O)NC1=O)C2` (stereo not drawn) [Example 16, [2-(2,6-dioxopiperidin-3-yl)-4-methoxy-3-oxo-2,3-dihydro-1H-isoindol-5-yl]methyl N-[2-fluoro-4-(3-fluorophenoxy)phenyl]carbamate], in assay [1], the DC50 was 161 nM, the Dmax stood at 107% and the “Ratio of GSPT1 DC50/Cyclin E1 DC50” value is reported as above 87. Besides, in assay [2], half-maximal inhibition (IC50) was put at 130 nM and the Emax came out at 105%. In assay [3], the half-maximal degradation concentration (DC50) was above 14000 nM and the Dmax was 46%.
As to `COc1c(COC(=O)Nc2ccc(Oc3ccc(F)cc3F)cc2)ccc2c1C(=O)N(C1CCC(=O)NC1=O)C2` (stereo not drawn) [Example 5, [2-(2,6-dioxopiperidin-3-yl)-4-methoxy-3-oxo-2,3-dihydro-1H-isoindol-5-yl]methyl N-[4-(2,4-difluorophenoxy)phenyl]carbamate], in assay [1], it took 299 nM to reach half-maximal degradation (DC50), the Dmax was 118% and the “Ratio of GSPT1 DC50/Cyclin E1 DC50” value is given as above 47. In addition, in assay [2], inhibition was half-maximal at 3 nM (IC50) and the Emax was found to be 131%. Further, in assay [3], the DC50 was above 14000 nM and the Dmax worked out at 33%.
Regarding `COc1c(COC(=O)Nc2ccc(Oc3cc(F)c(F)cc3F)cc2F)ccc2c1C(=O)N(C1CCC(=O)NC1=O)C2` (stereo not drawn) [Example 43, [2-(2,6-dioxopiperidin-3-yl)-4-methoxy-3-oxo-2,3-dihydro-1H-isoindol-5-yl]methyl N-[2-fluoro-4-(2,4,5-trifluorophenoxy)phenyl]carbamate], in assay [1], the DC50 is 165 nM, the Dmax amounted to 111% and the “Ratio of GSPT1 DC50/Cyclin E1 DC50” value was above 85. Moreover, in assay [2], the IC50 amounted to 131 nM and the Emax worked out at 121%. For the same compound, in assay [3], the half-maximal degradation concentration (DC50) is above 14000 nM and the Dmax is 33%.
